The target of experiment [1] is human A2b adenosine receptor (Homo sapiens (Human), UniProt P29275). Kind of experiment: A2b binding affinity, radioligand filtration binding assay. The note with it: tritiated proprietary A2b antagonist, HEK293 membranes. As to the method:
Measurement of A2b Binding Affinity
The reported affinity of the compounds of the invention for the human A2b adenosine receptor was determined experimentally using a radioligand filtration binding assay. This assay measures the amount of binding of a tritiated proprietary A2b receptor antagonist, in the presence and absence of a compound of the invention, to membranes made from HEK293 cells recombinantly expressing the human A2b adenosine receptor (Perkin Elmer, Cat. No. ES-013-C).
The filter plate was incubated for at least 1 h at 55° C. and allowed to dry. The bottom of the filter plate was then sealed with backing tape. […] The plates were then incubated for at least 20 min, and then the amount of radioactivity remaining in each well was determined using a TopCount® (Perkin Elmer) scintillation counter. After normalization to total and non-specific binding, the percent effect at each compound concentration was calculated. The plot of percent effect versus the log of compound concentration was analyzed electronically using a 4-parameter logistic fit based on the Levenberg-Marquardt algorithm to generate IC50 values.

Experiment [2] deals with human A2a adenosine receptor (Homo sapiens (Human), UniProt P29274). Kind of experiment: A2a binding affinity using radioligand binding, Method (A). Conditions: Method (A): [3H]SCH58261 filtration binding. Put shortly:
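Membranes from HEK293 or CHO cells expressing human A2a were preincubated with compound for 15–30 min at room temperature. [3H]SCH58261 was then added (4 nM working dilution) in 50 mM Tris pH 7.4, 10 mM MgCl2, 0.005% Tween20 for 60 min at room temperature. Bound radioactivity after filtration was normalised to total and non-specific binding, and IC50 came from 4-parameter logistic fits.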

The record followed here is patent publication US12414952B2 (Merck Sharp & Dohme LLC, priority 2018, dated 2025).

SMILES strings stand for the structures.

Sequence of human A2a adenosine receptor (P29274 whole entry): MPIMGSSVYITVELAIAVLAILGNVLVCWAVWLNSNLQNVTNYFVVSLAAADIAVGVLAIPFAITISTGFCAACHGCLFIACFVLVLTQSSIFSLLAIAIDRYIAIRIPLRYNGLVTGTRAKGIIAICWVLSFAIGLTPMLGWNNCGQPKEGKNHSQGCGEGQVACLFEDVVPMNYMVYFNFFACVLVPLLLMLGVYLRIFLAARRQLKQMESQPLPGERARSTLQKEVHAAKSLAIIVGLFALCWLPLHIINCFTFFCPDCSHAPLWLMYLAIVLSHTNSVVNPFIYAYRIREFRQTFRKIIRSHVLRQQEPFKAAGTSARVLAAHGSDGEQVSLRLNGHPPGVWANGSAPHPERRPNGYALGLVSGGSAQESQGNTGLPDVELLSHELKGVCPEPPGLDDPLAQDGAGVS
Sequence of human A2b adenosine receptor (P29275 whole entry): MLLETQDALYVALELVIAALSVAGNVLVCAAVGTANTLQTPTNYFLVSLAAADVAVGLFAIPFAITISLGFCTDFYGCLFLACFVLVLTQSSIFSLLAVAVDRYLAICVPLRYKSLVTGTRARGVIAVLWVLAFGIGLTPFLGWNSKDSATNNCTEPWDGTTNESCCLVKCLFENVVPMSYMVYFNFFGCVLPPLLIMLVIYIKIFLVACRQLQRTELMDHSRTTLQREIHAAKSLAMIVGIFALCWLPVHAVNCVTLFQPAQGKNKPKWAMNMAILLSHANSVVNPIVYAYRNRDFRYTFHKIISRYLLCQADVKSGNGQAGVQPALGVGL

Take `Cc1c(-c2ncco2)nc(N)n2nc(CNCc3ccc(C(C)(C)O)nc3)nc12` [Example 11.4, 2-(5-((((5-amino-8-methyl-7-(oxazol-2-yl)-[1,2,4]triazolo[1,5-c]pyrimidin-2-yl)methyl)amino)methyl)pyridin-2-yl)propan-2-ol]: the 50% inhibitory concentration (IC50) in experiment [1] is 744 nM; in experiment [2], 5.4 nM.
For `Cc1c(-c2ncco2)nc(N)n2nc(CNCc3cnn(CC(C)(C)O)c3)nc12` [Example 11.5, 1-(4-((((5-amino-8-methyl-7-(oxazol-2-yl)-[1,2,4]triazolo[1,5-c]pyrimidin-2-yl)methyl)amino)methyl)-1H-pyrazol-1-yl)-2-methylpropan-2-ol], in that order: 1320 nM and 15.2 nM.
For `Cc1c(-c2ncco2)nc(N)n2nc(CN(Cc3ccc(C(F)(F)F)cc3)CC(F)F)nc12` [Example 12.3], in that order: 1990 nM and 0.7 nM.
Consider `Cc1c(-c2ncco2)nc(N)n2nc(CN(Cc3ccc(C(C)(C)O)cc3)CC(F)F)nc12` [Example 13.1, 2-(4-((((5-amino-8-methyl-7-(oxazol-2-yl)-[1,2,4]triazolo[1,5-c]pyrimidin-2-yl)methyl)(2,2-difluoroethyl)amino)methyl)phenyl)propan-2-ol], for which the IC50 in experiment [1] stood at 489 nM; in experiment [2], 0.4 nM.
For `Cc1c(-c2ncco2)nc(N)n2nc(CCS(=O)(=O)C3CC3)nc12` [Example 15.3, 2-(2-(cyclopropylsulfonyl)ethyl)-8-methyl-7-(oxazol-2-yl)-[1,2,4]triazolo[1,5-c]pyrimidin-5-amine], in that order: 151 nM and 7.3 nM.
Turning to `Cc1c(-c2cccc(F)c2)nc(N)n2nc(CCS(=O)(=O)C3CC3)nc12` [Example 16.2, 2-(2-(cyclopropylsulfonyl)ethyl)-7-(3-fluorophenyl)-8-methyl-[1,2,4]triazolo[1,5-c]pyrimidin-5-amine], the IC50 in experiment [1] is 453 nM; in experiment [2], 19.3 nM.
`Cc1c(-c2ncco2)nc(N)n2nc(CCN3CCn4c(cnc4C4CC(F)(F)C4)C3)nc12` [Example 17.2, 2-(2-(3-(3,3-difluorocyclobutyl)-5,6-dihydroimidazo[1,5-a]pyrazin-7(8H)-yl)ethyl)-8-methyl-7-(oxazol-2-yl)-[1,2,4]triazolo[1,5-c]pyrimidin-5-amine]: the IC50 is 20.3 nM in experiment [1] and 0.4 nM in experiment [2].
For `Cc1c(-c2ncco2)nc(N)n2nc(CCN3CCn4c(cnc4C4CCCC4)C3)nc12` [Example 17.3, 2-(2-(3-cyclopentyl-5,6-dihydroimidazo[1,5-a]pyrazin-7(8H)-yl)ethyl)-8-methyl-7-(oxazol-2-yl)-[1,2,4]triazolo[1,5-c]pyrimidin-5-amine], in that order: 17.7 nM and 4.2 nM.
For the compound `Cc1c(-c2ncco2)nc(N)n2nc(CCN3Cc4cn(CC(C)(C)O)nc4C3)nc12` [Example 17.4, 1-(5-(2-(5-amino-8-methyl-7-(oxazol-2-yl)-[1,2,4]triazolo[1,5-c]pyrimidin-2-yl)ethyl)-5,6-dihydropyrrolo[3,4-c]pyrazol-2(4H)-yl)-2-methylpropan-2-ol], the IC50 came out at 1430 nM in experiment [1] and 9.4 nM in experiment [2].
For the compound `Cc1c(-c2ncco2)nc(N)n2nc(CCN3Cc4cnn(C)c4C3)nc12` [Example 17.5, 8-methyl-2-(2-(1-methyl-4,6-dihydropyrrolo[3,4-c]pyrazol-5(1H)-yl)ethyl)-7-(oxazol-2-yl)-[1,2,4]triazolo[1,5-c]pyrimidin-5-amine], the values for the IC50 in experiment [1] and in experiment [2] were 688 nM and 43.6 nM, respectively.
For `Cc1cc2n(n1)CCN(CCc1nc3c(C)c(-c4ncco4)nc(N)n3n1)C2` [Example 17.6, 8-methyl-2-(2-(2-methyl-6,7-dihydropyrazolo[1,5-a]pyrazin-5(4H)-yl)ethyl)-7-(oxazol-2-yl)-[1,2,4]triazolo[1,5-c]pyrimidin-5-amine], in that order: 677 nM and 16.3 nM.

The IC50 is the concentration that gives 50% inhibition. A lower IC50 goes with higher potency.
